Test results from US20250230193A1, “CYCLIC COMPOUND HAVING SELECTIVE KRAS INHIBITORY EFFECT ON HRAS AND NRAS” (CHUGAI SEIYAKU KABUSHIKI KAISHA, priority 2022, published 2025).
Where a SMILES comes first, the peptide text is derived from it. Bridges are numbered along the chain shown (N, C = ends). [ ]: non-standard residue; d: D form. The star is where a group is joined. hPhe(3-Cl-4-CF3) = N[C@@H](CCc1ccc(C(F)(F)F)c(Cl)c1)C(=O)O; NPrPhe(4-CF3) = CCCN[C@@H](Cc1ccc(C(F)(F)F)cc1)C(=O)O; NMeGly(cPent) = CN[C@H](C(=O)O)C1CCCC1; Hyp = O=C(O)[C@@H]1C[C@@H](O)CN1; NMeD = CN[C@@H](CC(=O)O)C(=O)O; NMeL = CN[C@@H](CC(C)C)C(=O)O; Morpholide = C1CN(*)CCO1; Ac5c = NC1(C(=O)O)CCCC1; Aze = O=C(O)[C@@H]1CCN1; Ac4c = NC1(C(=O)O)CCC1; Sar = CNCC(=O)O

What was measured:
[1] = biological target: GDP-bound NRAS wild-type protein (Homo sapiens, UniProt P01111); experiment: Binding to NRAS by surface plasmon resonance (SPR), Single Cycle Kinetics; settings: SPR; for NRAS/KRAS (ratio of KD value with respect to NRAS to KD value with respect to KRAS): GDP-bound NRAS wild-type vs GDP-bound KRAS wild-type
[2] = biological target: GDP-bound HRAS wild-type protein (Homo sapiens, UniProt P01112); experiment: Binding to HRAS by surface plasmon resonance (SPR), Single Cycle Kinetics; settings: SPR; for HRAS/KRAS (ratio of KD value with respect to HRAS to KD value with respect to KRAS): GDP-bound HRAS wild-type vs GDP-bound KRAS wild-type
GDP-bound HRAS wild-type protein, sequence (P01112 whole entry): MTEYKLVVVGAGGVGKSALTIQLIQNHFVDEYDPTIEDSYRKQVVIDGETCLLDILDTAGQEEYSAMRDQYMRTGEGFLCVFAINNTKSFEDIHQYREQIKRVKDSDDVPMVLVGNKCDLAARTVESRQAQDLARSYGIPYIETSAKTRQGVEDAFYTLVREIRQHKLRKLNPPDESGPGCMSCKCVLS

GDP-bound NRAS wild-type protein, sequence (P01111 whole entry): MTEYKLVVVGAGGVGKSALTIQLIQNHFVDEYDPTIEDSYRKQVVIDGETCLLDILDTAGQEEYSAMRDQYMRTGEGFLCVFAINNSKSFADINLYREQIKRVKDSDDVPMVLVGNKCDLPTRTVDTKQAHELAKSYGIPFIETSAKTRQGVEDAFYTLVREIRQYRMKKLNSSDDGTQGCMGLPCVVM

In the case of CCCN1C(=O)CN(C)C(=O)[C@@H]2CCN2C(=O)[C@H]([C@@H](C)CC)NC(=O)[C@H](CC(C)C)N(C)C(=O)C[C@@H](C(=O)N2CCOCC2)N(C)C(=O)[C@H](C2CCCC2)N(C)C(=O)C2(CCC2)NC(=O)[C@@H]2C[C@@H](OCC)CN2C(=O)[C@H](CCc2ccc(C(F)(F)F)c(Cl)c2)NC(=O)CN(C)C(=O)[C@@H]1Cc1ccc(C(F)(F)F)cc1 [PP0405] ([NMeL]I[Aze][Sar][NPrPhe(4-CF3)][Sar][hPhe(3-Cl-4-CF3)][Hyp](Et)[Ac4c][NMeGly(cPent)][NMeD]-Morpholide; lactam N-11), the “NRAS/KRAS (ratio of KD for GDP-bound NRAS wild-type to KD for KRAS)” value [1] is reported as “B (a compound having 3 or more and less than 10 is denoted as B)” and the “HRAS/KRAS (ratio of KD for GDP-bound HRAS wild-type to KD for KRAS)” value [2] is reported as “C (A compound having a KD ratio of 0.1 or more and less than 3 is denoted as C)”.
With CCC[C@H]1C(=O)N[C@@H]([C@@H](C)CC)C(=O)N(C)CC(=O)N(C)[C@H]2C/C=C\CCN(C2=O)[C@@H](Cc2ccc(C(F)(F)F)cc2)C(=O)N(C)CC(=O)N[C@@H](CCc2cc(F)c(C(F)(F)F)c(F)c2)C(=O)N2C[C@H](OCC)C[C@H]2C(=O)NC2(CCC2)C(=O)N(C)[C@@H](C2CCCC2)C(=O)N(C)[C@H](C(=O)N(C)C)CC(=O)N1C [PP1110] the “NRAS/KRAS (ratio of KD value with respect to NRAS to KD value with respect to KRAS)” value ([1]; KD ratio) was “A (a compound having 10 or more and less than 20 is denoted as A)” and the “HRAS/KRAS (ratio of KD value with respect to HRAS to KD value with respect to KRAS)” value ([2]; KD ratio) was “B (a compound having 3 or more and less than 10 is denoted as B)”.
CCO[C@@H]1C[C@H]2C(=O)NC3(CCC3)C(=O)N(C)[C@@H](C3CCCC3)C(=O)N(C)[C@H](C(=O)N(C)CC)CC(=O)N(C)[C@@H](C)C(=O)N[C@@H]([C@@H](C)CC)C(=O)N(C)CC(=O)N(C)[C@H]3C/C=C\CCN(C3=O)[C@@H](Cc3ccc(C(F)(F)F)cc3)C(=O)N(C)CC(=O)N[C@@H](CCc3cc(F)c(C(F)(F)F)c(F)c3)C(=O)N2C1 [PP1302] was tested, and the “NRAS/KRAS (ratio of KD value for GDP-bound NRAS wild-type protein to KD value for KRAS)” value ([1]; KD ratio class) was “A (a compound having 10 or more and less than 20 is denoted as A)” and the “HRAS/KRAS (ratio of KD value for GDP-bound HRAS wild-type protein to KD value for KRAS)” value ([2]; KD ratio class) was “A (a compound having 10 or more and less than 20 is denoted as A)”.
CCC[C@H]1C(=O)N[C@@H]([C@@H](C)CC)C(=O)N(C)CC(=O)N(C)[C@H]2C/C=C\CCN(C2=O)[C@@H](CC2CCC(F)(F)CC2)C(=O)N(C)CC(=O)N[C@@H](CCc2ccc(C(F)(F)F)c(OC)c2)C(=O)N2C[C@H](OCC)C[C@H]2C(=O)N(C)C2(CCC2)C(=O)N(C)[C@@H](C(CC)CC)C(=O)N(C)[C@H](C(=O)N(C)C)CC(=O)N1C [PP2345] was tested, and the “NRAS/KRAS (ratio of KD value with respect to NRAS to KD value with respect to KRAS)” value [1] was “A (a compound having 10 or more and less than 20 is denoted as A)” and the “HRAS/KRAS (ratio of KD value with respect to HRAS to KD value with respect to KRAS)” value [2] was “A (a compound having 10 or more and less than 20 is denoted as A)”.
In the case of CCCN1C(=O)CN(C)C(=O)[C@@H]2CCN2C(=O)[C@H]([C@@H](C)CC)NC(=O)[C@H](CC(C)C)N(C)C(=O)C[C@@H](C(=O)N2CCOCC2)N(C)C(=O)[C@H](C2CCCC2)N(C)C(=O)C2(CCCC2)NC(=O)[C@@H]2CCN2C(=O)[C@H](CCc2ccc(C(F)(F)F)c(Cl)c2)NC(=O)CN(C)C(=O)[C@@H]1Cc1ccc(C(F)(F)F)cc1 [PP0307] ([NMeL]I[Aze][Sar][NPrPhe(4-CF3)][Sar][hPhe(3-Cl-4-CF3)][Aze][Ac5c][NMeGly(cPent)][NMeD]-Morpholide; lactam N-11), the “NRAS/KRAS (ratio of KD for GDP-bound NRAS wild-type to KD for KRAS)” value [1] is reported as “B (a compound having 3 or more and less than 10 is denoted as B)” and the “HRAS/KRAS (ratio of KD for GDP-bound HRAS wild-type to KD for KRAS)” value [2] is reported as “B (a compound having 3 or more and less than 10 is denoted as B)”.
With CCO[C@@H]1C[C@H]2C(=O)NC3(CCC3)C(=O)N(C)[C@@H](C3CCCC3)C(=O)N(C)[C@H](C(=O)N(C)C)CC(=O)N(C)[C@@H](COC)C(=O)N[C@@H]([C@@H](C)CC)C(=O)NCC(=O)N(C)[C@H]3CCCCCN(C3=O)[C@@H](Cc3ccc(C(F)(F)F)cc3)C(=O)N(C)CC(=O)N[C@@H](CCc3cc(F)c(C(F)(F)F)c(F)c3)C(=O)N2C1 [PP0859] the “NRAS/KRAS (ratio of KD value with respect to NRAS to KD value with respect to KRAS)” value ([1]; KD ratio) was “B (a compound having 3 or more and less than 10 is denoted as B)” and the “HRAS/KRAS (ratio of KD value with respect to HRAS to KD value with respect to KRAS)” value ([2]; KD ratio) was “B (a compound having 3 or more and less than 10 is denoted as B)”.
With CCO[C@@H]1C[C@H]2C(=O)NC3(CC(C)(C)C3)C(=O)N(C)[C@@H](C(CC)CC)C(=O)N(C)[C@H](C(=O)N(C)C)CC(=O)N(C)[C@@H](CC3CC3)C(=O)N[C@@H]([C@@H](C)CC)C(=O)N(C)CC(=O)N(C)[C@H]3C/C=C\CCN(C3=O)[C@@H](Cc3ccc(C(F)(F)F)cc3)C(=O)N(C)CC(=O)N[C@@H](CCc3ccc(C(F)(F)F)c(Cl)c3)C(=O)N2C1 [PP2124] the “NRAS/KRAS (ratio of KD value with respect to NRAS to KD value with respect to KRAS)” value [1] was “AA (a compound having 20 or more is denoted as AA)” and the “HRAS/KRAS (ratio of KD value with respect to HRAS to KD value with respect to KRAS)” value [2] was “A (a compound having 10 or more and less than 20 is denoted as A)”.
